Laboratory results as given in patent publication US20250074943A1, “DLL3 BINDING PEPTIDES AND USES THEREOF” (AMGEN INC., priority 2021, published 2025).
Like-named read-outs stand apart in the source and are kept apart here. Blank lines part the entries; values can stand above or below the molecule they belong to. Bridge positions count the residues as written; N and C are the ends. Ends that are not written are not given here.

Assays:
[1] = molecular target: T1, recombinant DLL3 ectodomain (rhDLL3-Fc) (Homo sapiens, UniProt Q9NYJ7); test: Binding kinetic assay using Bio-layer interferometry (BLI); details: for binding mode to DLL3: peptides at 20, 4 and 0.8 μM, fit to 1:1 Langmuir binding model; for affinity: wider dose-response 10×KD to 0.1×KD
T1 construct: The recombinant DLL3 ectodomain (rhDLL3-Fc) was biotinylated; Fc
T1 sequence (Q9NYJ7 27-492 limits assumed): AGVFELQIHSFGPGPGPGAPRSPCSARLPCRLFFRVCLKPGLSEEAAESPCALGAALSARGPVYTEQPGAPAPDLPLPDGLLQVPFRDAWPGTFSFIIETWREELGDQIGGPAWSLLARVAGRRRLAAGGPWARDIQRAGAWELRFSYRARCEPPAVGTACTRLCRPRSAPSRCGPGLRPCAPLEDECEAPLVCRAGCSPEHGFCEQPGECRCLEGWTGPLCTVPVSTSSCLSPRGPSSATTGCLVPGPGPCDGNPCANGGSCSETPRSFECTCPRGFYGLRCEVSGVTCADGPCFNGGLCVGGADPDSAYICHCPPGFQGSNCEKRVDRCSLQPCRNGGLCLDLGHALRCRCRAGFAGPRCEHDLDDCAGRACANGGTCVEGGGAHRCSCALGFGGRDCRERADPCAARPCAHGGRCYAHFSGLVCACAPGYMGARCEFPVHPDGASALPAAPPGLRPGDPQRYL

[2] = molecular target: T2, native huDLL3 on the surface of cells (CHO cells) (Homo sapiens, UniProt Q9NYJ7); test: Flow cytometry competition with AF647-labelled peptide; type: cell-based; details: for efficiency in competing the binding of the AF647-labelled PepSP1146: compared with monomer PepSP1146
T2 construct: expressed in transfected cells; host or cells: CHO (CHO-huDLL3)
T2 sequence (Q9NYJ7 27-618): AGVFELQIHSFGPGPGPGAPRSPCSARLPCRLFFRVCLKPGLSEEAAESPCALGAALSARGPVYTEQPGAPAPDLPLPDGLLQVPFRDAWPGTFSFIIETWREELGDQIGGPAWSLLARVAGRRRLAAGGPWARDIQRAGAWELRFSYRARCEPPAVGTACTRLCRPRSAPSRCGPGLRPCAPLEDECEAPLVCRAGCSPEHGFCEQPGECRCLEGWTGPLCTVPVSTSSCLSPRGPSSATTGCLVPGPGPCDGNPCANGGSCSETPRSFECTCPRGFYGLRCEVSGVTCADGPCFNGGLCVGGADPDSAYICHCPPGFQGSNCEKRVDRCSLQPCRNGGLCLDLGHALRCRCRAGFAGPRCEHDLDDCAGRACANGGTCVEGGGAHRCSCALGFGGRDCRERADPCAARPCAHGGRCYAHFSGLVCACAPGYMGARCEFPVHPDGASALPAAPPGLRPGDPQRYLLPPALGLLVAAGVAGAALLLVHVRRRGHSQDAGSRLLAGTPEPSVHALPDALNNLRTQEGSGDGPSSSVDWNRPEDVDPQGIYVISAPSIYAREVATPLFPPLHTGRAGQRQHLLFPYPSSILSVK
Description: HEK293-huDLL3, CHO-huDLL3 and the corresponding parental cell lines were detached with EDTA 2.5 mM and re-suspended at 1.8×10^6 cells/ml in FACS buffer (1×PBS, 2% FBS), distributed at 500 μl per testing tube and pelleted 5 min at 1300 rpm in a Heraeus Multifuge […] centrifuge.

rhDLL3-Fc = molecular target: T3, rhDLL3-Fc (Homo sapiens, UniProt Q9NYJ7); test: SPR binding / off-rate screening (Biacore T200); details: curve fitting of SPR sensorgrams; for koff: read-out: koff; for kon: read-out: kon
T3 construct: The recombinant DLL3 ectodomain (rhDLL3-Fc) was biotinylated; Fc
T3 sequence (Q9NYJ7 27-492 limits assumed): T1 sequence (Q9NYJ7 27-492 limits assumed)
Description: […] The recombinant DLL3 ectodomain (rhDLL3-Fc) was biotinylated using EZ-Link Sulfo-NHS-LC-LC-Biotin Kit according to the manufacturer's protocol (Pierce by Thermo Fisher Scientific). The recombinant protein was incubated with an excess of NHS-LC-LC Biotin ester, in a molar ratio of 1:3 (protein: biotin), at 25° C. for 90 min. The un-reacted biotin ester was removed by subsequent buffer exchange on 0.5 ml Zeba spin desalting columns 7K MWCO (Pierce by Thermo Fisher Scientific).
The off-rate screening of the peptides was done using a Biacore T200 instrument (Cytiva, Sweden). […] Sensorgrams were analyzed by Biacore T200 Evaluation Software 3.0 (Cytiva, Sweden): specific binding was obtained by subtracting unspecific binding to naked biosensors and a zero analyte concentration made of binding assay buffer (double referencing). […]

- binding mode to DLL3 [1]: dose-response saturable binding
- affinity [1]: double-digit nM range
- IC50 [2]: 76 nM
Molecule: CC(C)[C@H](NC(=O)[C@@H](NC(=O)[C@H](CCC(=O)O)NC(=O)[C@H](C)N)[C@@H](C)O)C(=O)N[C@@H](CCC(=O)O)C(=O)N[C@@H](Cc1ccccc1)C(=O)N[C@@H](Cc1c[nH]c2ccccc12)C(=O)NCC(=O)N[C@H]1CSSC[C@@H](C(=O)N[C@@H](Cc2c[nH]c3ccccc23)C(=O)N[C@@H](Cc2c[nH]c3ccccc23)C(N)=O)NC(=O)[C@H]([C@@H](C)O)NC(=O)[C@H](CCC(=O)O)NC(=O)[C@H](CC(N)=O)NC(=O)CNC(=O)[C@H](Cc2c[nH]c3ccccc23)NC(=O)[C@H]([C@@H](C)O)NC(=O)CNC(=O)[C@H]([C@@H](C)O)NC1=O [PepSP1146]

- Kd ([1]; Table 4, global fitting 1:1 Langmuir, koff vs kon ratio, ± values from three independent experiments): 70 ± 19 nM
- residence time ([1]; Table 4, ± values from three independent experiments, read-out: RT (residence time) (converted)): 1.83 min
- binding mode to DLL3 [1]: dose-response saturable binding
- residence time ([1]; range over the seven peptides, read-out: residence time): 1 to 3 min
- affinity [1]: double-digit nM range
- Kd (rhDLL3-Fc; Table 8): 70 nM
- koff (rhDLL3-Fc; Table 8): 0.0097 s⁻¹
- kon (rhDLL3-Fc; Table 8): 140000 M⁻¹ s⁻¹
Molecule: CC(C)[C@H](NC(=O)[C@@H](NC(=O)[C@H](CCC(=O)O)NC(=O)[C@H](C)N)[C@@H](C)O)C(=O)N[C@@H](CCC(=O)O)C(=O)N[C@@H](Cc1ccccc1)C(=O)N[C@@H](Cc1c[nH]c2ccccc12)C(=O)N[C@@H](Cc1c[nH]c2ccccc12)C(=O)N[C@H]1CSSC[C@@H](C(=O)N[C@H](C(=O)N[C@@H](Cc2c[nH]c3ccccc23)C(N)=O)[C@@H](C)O)NC(=O)[C@H]([C@@H](C)O)NC(=O)[C@H](Cc2c[nH]c3ccccc23)NC(=O)[C@H](CC(N)=O)NC(=O)[C@H](CCC(=O)O)NC(=O)[C@H](CO)NC(=O)[C@H](CC(N)=O)NC(=O)CNC(=O)[C@H](CC(N)=O)NC1=O [PepSP1171]

- IC50 [2]: 15.3 nM
- efficiency in competing the binding of the AF647-labelled PepSP1146 [2]: higher efficiency
- Kd (rhDLL3-Fc; Table 7): 3 nM
- koff (rhDLL3-Fc; Table 7): 0.00024 s⁻¹
- kon (rhDLL3-Fc; Table 7): 74300 M⁻¹ s⁻¹
Molecule: CC(C)[C@H](NC(=O)[C@@H](NC(=O)[C@H](CCC(=O)O)NC(=O)[C@H](C)N)[C@@H](C)O)C(=O)N[C@@H](CCC(=O)O)C(=O)N[C@@H](Cc1ccccc1)C(=O)N[C@@H](Cc1c[nH]c2ccccc12)C(=O)NCC(=O)N[C@H]1CSSC[C@@H](C(=O)N[C@@H](Cc2c[nH]c3ccccc23)C(=O)N[C@@H](Cc2c[nH]c3ccccc23)C(=O)NCCCOCCOCCOCCCNC(=O)CCC(=O)N[C@@H](CCCCn2cc(COCCOCCOCCOCCOCCOCc3cn(CCCC[C@H](NC(=O)CCC(=O)NCCCOCCOCCOCCCNC(=O)[C@H](Cc4c[nH]c5ccccc45)NC(=O)[C@H](Cc4c[nH]c5ccccc45)NC(=O)[C@@H]4CSSC[C@H](NC(=O)CNC(=O)[C@H](Cc5c[nH]c6ccccc56)NC(=O)[C@H](Cc5ccccc5)NC(=O)[C@H](CCC(=O)O)NC(=O)[C@@H](NC(=O)[C@@H](NC(=O)[C@H](CCC(=O)O)NC(=O)[C@H](C)N)[C@@H](C)O)C(C)C)C(=O)N[C@@H]([C@@H](C)O)C(=O)NCC(=O)N[C@@H]([C@@H](C)O)C(=O)N[C@@H](Cc5c[nH]c6ccccc56)C(=O)NCC(=O)N[C@@H](CC(N)=O)C(=O)N[C@@H](CCC(=O)O)C(=O)N[C@@H]([C@@H](C)O)C(=O)N4)C(N)=O)nn3)nn2)C(N)=O)NC(=O)[C@H]([C@@H](C)O)NC(=O)[C@H](CCC(=O)O)NC(=O)[C@H](CC(N)=O)NC(=O)CNC(=O)[C@H](Cc2c[nH]c3ccccc23)NC(=O)[C@H]([C@@H](C)O)NC(=O)CNC(=O)[C@H]([C@@H](C)O)NC1=O [PepSP1270]

Molecule: AETVEFWSCVVYGDNWTCSS-CONH2 (AETVEFWSCVVYGDNWTCSS-NH2; disulfide 9-18 (inferred)) [PepSP1172]
- efficiency in competing the binding of the AF647-labelled PepSP1146 [2]: most efficient binder
